From patent US8603737B2, “Methods for identifying HCV protease inhibitors” (priority 2008, dated 2013)

Assays:
[1] = target: T1, A156T mutant of the HCV NS3/4A 1b protease enzyme (Hepatitis C virus genotype 1b, UniProt P26663, A1182T); experiment: HCV protease FRET assay, A156T mutant; format: biochemical; settings: read-out: Inhibition, HCV A156T (IC50)
T1 construct: 10× stocks of NS3/4A protease enzyme from Bioenza; purchased Bioenza (Mountain View, Calif.)
Description: (§1) HCV Protease FRET Assay for Mutated NS3/4A 1b Enzymes
(§2) The protocol is a modified FRET-based assay (v—02) from In Vitro Resistance Studies of HCV Serine Protease Inhibitors, 2004, JBC, vol. 279, No. 17, pp 17508-17514. Inherent potency of compounds was assessed against A156S, A156T, D168A, and D168V mutants of the HCV NS3/4A 1b protease enzyme as follows:
(§3) Assay buffer: 2% CHAPS, 50 mM Tris pH 7.5, 50% glycerol, 2 μM M-2235 (Bachem) substrate. In a 50 μl reaction, add 49 μl assay buffer, 1 μl (1 U) HCV serine protease (Bioenza). Incubate 20 minutes at room temperature. The plate was read at either 350/460 nm (excitation/emission) on a fluorescent micro-plate reader or monitored at one-minute intervals to achieve the kinetic curve.
10× stocks of NS3/4A protease enzyme from Bioenza (Mountain View, Calif.) and 1.13×5-FAM/QXL™520 FRET peptide substrate from Anaspec (San Jose, Calif.) were prepared in 50 mM HEPES, pH 7.8, 100 mM NaCl, 5 mM DTT and 20% glycerol. […] Protease reactions were started with the addition of 45 μL of the FRET substrate and monitored for 120 minutes at λex487/λem514 through Quad^4 monochromoters in a Synergy^4 plate reader from BioTek (Winooski, Vt.). […]

[2] = target: T2, D168V mutant of the HCV NS3/4A 1b protease enzyme (Hepatitis C virus genotype 1b, UniProt P26663, D1194V); experiment: HCV protease FRET assay, D168V mutant; format: biochemical; settings: read-out: Inhibition, HCV D168V (IC50)
T2 construct: 10× stocks of NS3/4A protease enzyme from Bioenza; purchased Bioenza (Mountain View, Calif.)
Description: as §1, §2, §3
10× stocks of NS3/4A protease enzyme from Bioenza (Mountain View, Calif.) and 1.13×5-FAM/QXL™520 FRET peptide substrate from Anaspec (San Jose, Calif.) were prepared in 50 mM HEPES, pH 7.8, 100 mM NaCl, 5 mM DTT and 20% glycerol. 5 μL of each enzyme were pre-incubated in a Corning (#3573) 384-well, black, non-treated microtiter plate (Corning, N.Y.) for 30 min at 25° C. with a 0.5 μL volume of 50% DMSO and serially diluted compounds prepared in 50% DMSO. Protease reactions were started with the addition of 45 μL of the FRET substrate and monitored for 120 minutes at λex487/λem514 through Quad^4 monochromoters in a Synergy^4 plate reader from BioTek (Winooski, Vt.). […] Initial velocity (0 minutes to 30+ minutes) from each reaction was determined from the slope of a plot of relative fluorescence units vs time (minutes) and then plotted against inhibitor concentration to estimate IC50 from log[Inhibitor] vs Response, Variable Slope model in GraphPad Prism from GraphPad Software (San Diego, Calif.). […]
The following protocol was used to generate “apparent” IC50 (IC50—APP)) values as depicted in Table 3, below. […] Protease reactions were immediately started after enzyme addition with the addition of 45 μL of the FRET substrate and monitored for 60-90 minutes at λex485/λem520 in a Synergy^4 plate reader from BioTek (Winooski, Vt.). […]

[3] = test system: HCV RNA replicon in cell line ET (luc-ubi-neo/ET), human Huh7 hepatoma; experiment: Luciferase reporter replicon assay (Example 5, Method C); format: cell-based; settings: Hepatitis C virus, Huh-7, 72 hr
Description: Method C: Luciferase Reporter Assay Protocol
The compounds were assayed to evaluate the antiviral activity and cytotoxicity of compounds using replicon-derived luciferase activity. This assay used the cell line ET (luc-ubi-neo/ET), which is a human Huh7 hepatoma cell line that contains an HCV RNA replicon with a stable luciferase (Luc) reporter and three cell culture-adaptive mutations. The ET cell line was grown in a 5% CO2 incubator at 37° C. in Dulbecco's modified essential media (DMEM), supplemented with 2 mM L-glutamine (“1%”), nonessential amino acids, 100 U of penicillin/mL, 100 μg of streptomycin/mL (“1%”), 10% fetal bovine serum and 400 μg/mL G418 (Geneticin; Invitrogen).
All cell culture reagents were obtained from Invitrogen (Carlsbad). Cells were trypsinized (1% trypsin:EDTA) and plated out at 5×10^3 cells/well in white 96-well assay plates (Costar) dedicated to cell number (cytotoxicity) or antiviral activity assessments. Test compounds were added at six 3-fold serial dilutions each and the assay was run in DMEM, 5% FBS, 1% pen-strep, 1% glutamine, 1% non essential amino acid. Human interferon alpha-2b (PBL Biolabs, New Brunswick, N.J.) was included in each run as a positive control compound. Cells were processed 72 hr post test compound addition when the cells were still subconfluent. Antiviral activity was measured by analyzing replicon-derived luciferase activity using the Steady-Glo Luciferase Assay System (Promega, Madison, Wis.) according to manufacturer's instruction. The number of cells in each well was determined by Cell Titer Blue Assay (Promega). Compound profile was derived by calculating applicable EC50 (effective concentration inhibiting virus replication by 50%), EC90 (effective concentration inhibiting virus replication by 90%), IC50 (concentration decreasing cell viability by 50%) and SI50 (selective index: […]) values.

[4] = target: T3, R155K mutant of the HCV NS3/4A 1b protease enzyme (Hepatitis C virus genotype 1b, UniProt P26663, R1181K); experiment: HCV protease FRET assay, R155K mutant; format: biochemical; settings: read-out: Inhibition, HCV R155K (IC50)
T3 construct: 10× stocks of NS3/4A protease enzyme from Bioenza; purchased Bioenza (Mountain View, Calif.)
Text: HCV Protease FRET Assay for WT and Mutated NS3/4A 1b Enzymes (IC50 —APP)
The following protocol was used to generate “apparent” IC50 (IC50—APP)) values as depicted in Table 3, below. Without wishing to be bound by any particular theory, it is believed that IC50—APP, contrasted with IC50 values, may provide a more useful indication of time-dependent inhibition, and are thus more representative of binding affinity. The protocol is a modified FRET-based assay (v—03) developed to evaluate compound potency, rank-order and resistance profiles against wild type and C159S, A156S, A156T, D168A, D168V, R155K mutants of the HCV NS3/4A 1b protease enzyme as follows: 10× stocks of NS3/4A protease enzyme from Bioenza (Mountain View, Calif.) and 1.13×5-FAM/QXL™520 FRET peptide substrate from Anaspec (San Jose, Calif.) were prepared in 50 mM Tris-HCl, pH 7.5, 5 mM DTT, 2% CHAPS and 20% glycerol. 5 μL of each enzyme were added to Corning (#3575) 384-well, black, microtiter plates (Corning, N.Y.) after spotting a 0.5 μL volume of 50% DMSO and serially diluted compounds prepared in 50% DMSO. Protease reactions were immediately started after enzyme addition with the addition of 45 μL of the FRET substrate and monitored for 60-90 minutes at λex485/λem520 in a Synergy^4 plate reader from BioTek (Winooski, Vt.). […]

SMILES | IC50 [1] | IC50 [2] | IC90 ([3]; IC90, read-out: Inhibition, Replicon, IC90 value, Method C) | IC50 ([3]; read-out: Inhibition, Replicon (IC50), Method C) | IC50 [4] | EC90 ([3]; EC90, read-out: Inhibition, Replicon, EC90 value) | EC50 ([3]; read-out: Inhibition, Replicon, EC50 value)
C=C[C@@H]1C[C@]1(NC(=O)[C@@H]1C[C@@H](Oc2cc(-c3ccccc3)nc3cc(OC)ccc23)CN1C(=O)C(NC(=O)OC(C)(C)C)[C@@H](C)OC(=O)/C=C/C)C(=O)NS(=O)(=O)C1CC1 (stereo partly shown) [Compound 3] | 100 to 1000 nM | 1000 to 10000 nM |  |  |  |  | 
C=CC(=O)N(C)C[C@H](NC(=O)OC(C)(C)C)C(=O)N1C[C@H](OC(=O)N2Cc3cccc(F)c3C2)C[C@H]1C(=O)N[C@]1(C(=O)NS(=O)(=O)C2CC2)C[C@H]1C=C [Compound 4] | < 10 nM | 10 to 100 nM | 10 to 100 nM | < 10 nM | 10 to 100 nM |  | 
CC(C)(C)OC(=O)NC1CN(C(=O)CCl)CCC/C=C\[C@@H]2C[C@@]2(C(=O)NS(=O)(=O)C2CC2)NC(=O)[C@@H]2C[C@@H](OC(=O)N3Cc4cccc(F)c4C3)CN2C1=O (stereo partly shown) [Compound 8] |  |  |  |  | 10 to 100 nM | 100 to 1000 nM | 10 to 100 nM
